# pIC50: −log10 of the molar value.
# Target: T1, His-tagged full-length RSK2 (RPS6KA3) (Homo sapiens, UniProt P51812)
# T1 construct: His-tagged full-length RSK2 (RPS6KA3, Invitrogen PV3323); His; purchased Invitrogen PV3323
# Test: RSK2 Omnia Assay for compound IC50 determination
# Type: biochemical
# Conditions: ATP 15 μM, n=2, read-out: Mean RSK2 Biochem IC50
# How it was run: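 Initial-rate slopes from continuous kinetic reads were fitted to a four-parameter equation for IC50 (n=2). Ki was then derived by Cheng-Prusoff assuming ATP-competitive inhibition. Reactions contained 15 μM ATP (Km 16.3 μM), 5 μM Omnia ST Peptide 6, and […] in 50 mM HEPES pH 7.5, 10 mM MgCl2, 1 mM DTT, 1% DMSO. Compounds spanned 11 threefold steps, […] final.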
# T1 sequence (P51812 whole entry): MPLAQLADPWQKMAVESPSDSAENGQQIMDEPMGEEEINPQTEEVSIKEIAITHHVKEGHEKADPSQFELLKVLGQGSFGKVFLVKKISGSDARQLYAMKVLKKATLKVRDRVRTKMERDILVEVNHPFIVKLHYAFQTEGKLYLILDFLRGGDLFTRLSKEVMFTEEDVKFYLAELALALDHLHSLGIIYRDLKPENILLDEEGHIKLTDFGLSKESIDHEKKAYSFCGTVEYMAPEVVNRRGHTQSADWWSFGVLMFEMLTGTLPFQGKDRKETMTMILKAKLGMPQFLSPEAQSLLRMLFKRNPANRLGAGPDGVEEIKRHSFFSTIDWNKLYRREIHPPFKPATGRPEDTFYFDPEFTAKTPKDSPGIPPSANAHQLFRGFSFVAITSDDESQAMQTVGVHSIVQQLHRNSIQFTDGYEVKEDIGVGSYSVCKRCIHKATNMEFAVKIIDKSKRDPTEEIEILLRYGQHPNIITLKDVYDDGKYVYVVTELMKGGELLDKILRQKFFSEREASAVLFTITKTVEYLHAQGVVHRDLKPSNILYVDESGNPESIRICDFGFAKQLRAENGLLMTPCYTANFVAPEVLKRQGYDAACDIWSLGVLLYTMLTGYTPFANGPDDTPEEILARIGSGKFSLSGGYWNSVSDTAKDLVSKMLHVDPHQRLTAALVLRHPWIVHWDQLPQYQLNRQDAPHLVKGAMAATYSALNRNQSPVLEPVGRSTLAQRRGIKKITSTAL
row,pIC50,Structure (SMILES)
1,≥ 7.00,"C[C@@H]1C(=O)N(c2cccc(CO)c2)c2cnc(Nc3ccc4[nH]ncc4c3)nc2N1C1CCCCC1 [compound 127, (7R)-8-cyclohexyl-5-[3-(hydroxymethyl)phenyl]-2-(1H-indazol-5-ylamino)-7-methyl-7,8-dihydropteridin-6(5H)-one]"
2,≥ 7.00,"C[C@@H]1C(=O)N(c2cncc(C#N)c2)c2cnc(Nc3ccc4[nH]ncc4c3)nc2N1C1CCCCC1 [compound 128, 5-[(7R)-8-cyclohexyl-2-(1H-indazol-5-ylamino)-7-methyl-6-oxo-7,8-dihydropteridin-5(6H)-yl]pyridine-3-carbonitrile]"
3,≥ 7.00,"C[C@@H]1C(=O)N(c2ccc(N(C)C)nc2)c2cnc(Nc3ccc4[nH]ncc4c3)nc2N1C1CCCCC1 [compound 129, (7R)-8-cyclohexyl-5-[6-(dimethylamino)pyridin-3-yl]-2-(1H-indazol-5-ylamino)-7-methyl-7,8-dihydropteridin-6(5H)-one]"
4,≥ 7.00,"C[C@@H]1C(=O)N(c2cccc(C#N)c2)c2cnc(Nc3cc(F)c4[nH]ncc4c3F)nc2N1C1CCCCC1 [compound 130, 3-[(7R)-8-cyclohexyl-2-[(4,7-difluoro-1H-indazol-5-yl)amino]-7-methyl-6-oxo-7,8-dihydropteridin-5(6H)-yl]benzonitrile]"
5,≥ 7.00,"C[C@@H]1C(=O)N(c2cccc(C#N)c2)c2cnc(Nc3cc(F)c4[nH]nc(F)c4c3)nc2N1C1CCCCC1 [compound 131, 3-[(7R)-8-cyclohexyl-2-[(3,7-difluoro-1H-indazol-5-yl)amino]-7-methyl-6-oxo-7,8-dihydropteridin-5(6H)-yl]benzonitrile]"
6,≥ 7.00,"COc1ccc(N2C(=O)[C@@H](C)N(C3CCCCC3)c3nc(Nc4cc(F)c5[nH]ncc5c4)ncc32)cc1OC [compound 132, (7R)-8-cyclohexyl-5-(3,4-dimethoxyphenyl)-2-[(7-fluoro-1H-indazol-5-yl)amino]-7-methyl-7,8-dihydropteridin-6(5H)-one]"
7,≥ 7.00,"C[C@@H]1C(=O)N(c2ccc3cccnc3c2)c2cnc(Nc3cc(F)c4[nH]ncc4c3)nc2N1C1CCCCC1 [compound 133, (7R)-8-cyclohexyl-2-[(7-fluoro-1H-indazol-5-yl)amino]-7-methyl-5-(quinolin-7-yl)-7,8-dihydropteridin-6(5H)-one]"
8,≥ 7.00,"C[C@@H]1C(=O)N(c2cccnc2)c2cnc(Nc3cc(F)c4[nH]ncc4c3)nc2N1C1CCCCC1 [compound 135, (7R)-8-cyclohexyl-2-[(7-fluoro-1H-indazol-5-yl)amino]-7-methyl-5-(pyridin-3-yl)-7,8-dihydropteridin-6(5H)-one]"
9,≥ 7.00,"COc1ccc(N2C(=O)[C@@H](C)N(C3CCCCC3)c3nc(Nc4cc(F)c5[nH]ncc5c4)ncc32)cc1C#N [compound 136, 5-[(7R)-8-cyclohexyl-2-[(7-fluoro-1H-indazol-5-yl)amino]-7-methyl-6-oxo-7,8-dihydropteridin-5(6H)-yl]-2-methoxybenzonitrile]"
10,≥ 7.00,"C[C@@H]1C(=O)N(c2cccc(F)c2)c2cnc(Nc3cc(F)c4[nH]ncc4c3)nc2N1C1CCCCC1 [compound 137, (7R)-8-cyclohexyl-2-[(7-fluoro-1H-indazol-5-yl)amino]-5-(3-fluorophenyl)-7-methyl-7,8-dihydropteridin-6(5H)-one]"
11,≥ 7.00,"COc1ccc(N2C(=O)[C@@H](C)N(C3CCCCC3)c3nc(Nc4cc(F)c5[nH]ncc5c4)ncc32)cn1 [compound 138, (7R)-8-cyclohexyl-2-[(7-fluoro-1H-indazol-5-yl)amino]-5-(6-methoxypyridin-3-yl)-7-methyl-7,8-dihydropteridin-6(5H)-one]"
12,≥ 7.00,"C[C@@H]1C(=O)N(c2ccc(N3CCN(C)CC3)nc2)c2cnc(Nc3cc(F)c4[nH]ncc4c3)nc2N1C1CCCCC1 [compound 139, (7R)-8-cyclohexyl-2-[(7-fluoro-1H-indazol-5-yl)amino]-7-methyl-5-[6-(4-methylpiperazin-1-yl)pyridin-3-yl]-7,8-dihydropteridin-6(5H)-one]"
13,≥ 7.00,"CC[C@@H]1C(=O)N(c2cccc(C#N)c2)c2cnc(Nc3ccc4[nH]ncc4c3)nc2N1C1CCCC1 [compound 140, 3-[(7R)-8-cyclopentyl-7-ethyl-2-(1H-indazol-5-ylamino)-6-oxo-7,8-dihydropteridin-5(6H)-yl]benzonitrile]"
14,≥ 7.00,"C[C@@H]1C(=O)N(c2ccc(N3CCCC3)nc2)c2cnc(Nc3cc(F)c4[nH]ncc4c3)nc2N1C1CCCCC1 [compound 141, (7R)-8-cyclohexyl-2-[(7-fluoro-1H-indazol-5-yl)amino]-7-methyl-5-[6-(pyrrolidin-1-yl)pyridin-3-yl]-7,8-dihydropteridin-6(5H)-one]"
15,≥ 7.00,"C[C@@H]1C(=O)N(c2ccc(N3CCCCC3)nc2)c2cnc(Nc3cc(F)c4[nH]ncc4c3)nc2N1C1CCCCC1 [compound 142, (7R)-8-cyclohexyl-2-[(7-fluoro-1H-indazol-5-yl)amino]-7-methyl-5-[6-(piperidin-1-yl)pyridin-3-yl]-7,8-dihydropteridin-6(5H)-one]"
16,≥ 7.00,"C[C@@H]1C(=O)N(c2ccc(N(C)C)nc2)c2cnc(Nc3cc(F)c4[nH]ncc4c3)nc2N1C1CCCCC1 [compound 143, (7R)-8-cyclohexyl-5-[6-(dimethylamino)pyridin-3-yl]-2-[(7-fluoro-1H-indazol-5-yl)amino]-7-methyl-7,8-dihydropteridin-6(5H)-one]"
17,≥ 7.00,"C[C@@H]1C(=O)N(c2cccc(C#N)c2)c2cnc(Nc3ccc4[nH]nc(F)c4c3F)nc2N1C1CCCCC1 [compound 144, 3-[(7R)-8-cyclohexyl-2-[(3,4-difluoro-1H-indazol-5-yl)amino]-7-methyl-6-oxo-7,8-dihydropteridin-5(6H)-yl]benzonitrile]"
18,≥ 7.00,"C[C@@H]1C(=O)N(c2cccc(C#N)c2)c2cnc(Nc3cc(F)c4c(c3)CC(=O)N4)nc2N1C1CCCCC1 [compound 145, 3-[(7R)-8-cyclohexyl-2-[(7-fluoro-2-oxo-2,3-dihydro-1H-indol-5-yl)amino]-7-methyl-6-oxo-7,8-dihydropteridin-5(6H)-yl]benzonitrile]"
19,≥ 7.00,"C[C@@H]1C(=O)N(c2cccc(C#N)c2)c2cnc(Nc3cc(F)c4[nH]nc(F)c4c3F)nc2N1C1CCCCC1 [compound 146, 3-[(7R)-8-cyclohexyl-7-methyl-6-oxo-2-[(3,4,7-trifluoro-1H-indazol-5-yl)amino]-7,8-dihydropteridin-5(6H)-yl]benzonitrile]"
20,≥ 7.00,"C[C@@H]1C(=O)N(c2ccc(N3CCC(O)CC3)nc2)c2cnc(Nc3cc(F)c4[nH]ncc4c3)nc2N1C1CCCCC1 [compound 147, (7R)-8-cyclohexyl-2-[(7-fluoro-1H-indazol-5-yl)amino]-5-[6-(4-hydroxypiperidin-1-yl)pyridin-3-yl]-7-methyl-7,8-dihydropteridin-6(5H)-one]"
21,≥ 7.00,"COc1ccc(N2C(=O)[C@@H](C)N(C3CCCCC3)c3nc(Nc4ccc(C(=O)O)cc4)ncc32)cc1OC [compound 148, 4-{[(7R)-8-cyclohexyl-5-(3,4-dimethoxyphenyl)-7-methyl-6-oxo-5,6,7,8-tetrahydropteridin-2-yl]amino}benzoic acid]"
22,≥ 7.00,"C[C@@H]1C(=O)N(c2cccc(C#N)c2)c2cnc(Nc3ccc4[nH]c(=O)oc4c3)nc2N1C1CCCCC1 [compound 149, 3-[(7R)-8-cyclohexyl-7-methyl-6-oxo-2-[(2-oxo-2,3-dihydro-1,3-benzoxazol-6-yl)amino]-7,8-dihydropteridin-(6H)-yl]benzonitrile]"
23,≥ 7.00,"COc1ccc(N2C(=O)[C@@H](C)N(C3CCCCC3)c3nc(Nc4ccc5[nH]c(=O)oc5c4)ncc32)cc1OC [compound 150, (7R)-8-cyclohexyl-5-(3,4-dimethoxyphenyl)-7-methyl-2-[(2-oxo-2,3-dihydro-1,3-benzoxazol-6-yl)amino]-7,8-dihydropteridin-6(5H)-one]"
24,≥ 7.00,"C[C@@H]1C(=O)N(c2cccnc2)c2cnc(Nc3ccc4[nH]c(=O)oc4c3)nc2N1C1CCCCC1 [compound 151, (7R)-8-cyclohexyl-7-methyl-2-[(2-oxo-2,3-dihydro-1,3-benzoxazol-6-yl)amino]-5-(pyridin-3-yl)-7,8-dihydropteridin-6(5H)-one]"
25,≥ 7.00,"C[C@@H]1C(=O)N(c2cccc(C#N)c2)c2cnc(Nc3cnc4[nH]ncc4c3)nc2N1C1CCCCC1 [compound 152, 3-[(7R)-8-cyclohexyl-7-methyl-6-oxo-2-(1H-pyrazolo[3,4-b]pyridin-5-ylamino)-7,8-dihydropteridin-5(6H)-yl]benzonitrile]"
26,≥ 7.00,"COc1ccc(N2C(=O)[C@@H](C)N(C3CCCCC3)c3nc(Nc4cnc5[nH]ncc5c4)ncc32)cc1OC [compound 153, (7R)-8-cyclohexyl-5-(3,4-dimethoxyphenyl)-7-methyl-2-(1H-pyrazolo[3,4-B]pyridin-5-ylamino)-7,8-dihydropteridin-6(5H)-one]"
27,≥ 7.00,"C[C@@H]1C(=O)N(c2cccnc2)c2cnc(Nc3cnc4[nH]ncc4c3)nc2N1C1CCCCC1 [compound 154, (7R)-8-cyclohexyl-7-methyl-2-(1H-pyrazolo[3,4-b]pyridin-5-ylamino)-5-(pyridin-3-yl)-7,8-dihydropteridin-6(5H)-one]"
28,≥ 7.00,"C[C@@H]1C(=O)N(c2cccc(C#N)c2)c2cnc(Nc3ccc(C(=O)O)cc3)nc2N1C1CCCCC1 [compound 155, 4-{[(7R)-5-(3-cyanophenyl)-8-cyclohexyl-7-methyl-6-oxo-5,6,7,8-tetrahydropteridin-2-yl]amino}benzoic acid]"
29,6.00 to 7.00,"C[C@@H]1C(=O)N(c2cccc(C#N)c2)c2cnc(Nc3ccccc3)nc2N1C1CCCCC1 [compound 156, 3-[(7R)-8-cyclohexyl-7-methyl-6-oxo-2-(phenylamino)-7,8-dihydropteridin-5(6H)-yl]benzonitrile]"

# Reference: patent publication US9351974B2, “Substituted pteridinones for the treatment of cancer” (OSI Pharmaceuticals, LLC, priority 2011, dated 2016)
